Experimental findings from ChEMBL document CHEMBL1127944, “Synthesis of the potent and selective atypical -adrenergic agonist SR 59062A” (Bioorg Med Chem Lett, 1994) are described below.

For assay [1], the target named is Adrenergic receptor beta (Homo sapiens, UniProt P08588+P07550+P13945). As to the kind of experiment: Beta-adrenergic agonistic activity in guinea-pig atrium preincubated with phenoxybenzamine (12 uM) for 30 min. As to conditions: target entry is the homologue from another species. The format is functional, tissue-based, Cavia porcellus, Cardiac atrium.
Assay [2] deals with T1, Adrenergic receptor beta (Rattus norvegicus, UniProt P18090+P10608+P26255). Kind of assay: Beta-adrenergic agonistic activity in rat proximal colon in presence of phentolamine (10 uM), desmethylimipramine (0.5 uM) and hydrocortisone (30 uM). The format is functional, tissue-based.
Assay [3] deals with T1, Adrenergic receptor beta. As to the kind of experiment: Beta-adrenergic agonistic activity in rat uterus preincubated with phenoxybenzamine (12 uM) for 30 min. Format: functional, tissue-based.
Assay [4] concerns the target T1, Adrenergic receptor beta. As to the kind of experiment: Beta-adrenergic agonistic activity in rat proximal colon. The format is functional.

The structures appear in SMILES notation. A value given as a limit tells only on which side of the number the result lay.

`CCOC(=O)COc1ccc2c(c1)C[C@@H](NC[C@H](O)c1cccc(Cl)c1)CC2.Cl` [AMIBEGRON HYDROCHLORIDE] showed an EC50 at Adrenergic receptor beta [1] above 30000 nM. Also, the IC50 was 3.5 nM on Adrenergic receptor beta [2] and 499 nM at Adrenergic receptor beta [3].
On to `CCOC(=O)COc1ccc2c(c1)C[C@@H](NC[C@H](O)c1cccc(Cl)c1)CC2.Cl` (mixture of isomers) [AMIBEGRON HYDROCHLORIDE], for which the EC50 on Adrenergic receptor beta [1] is above 30000 nM. In addition, the values for the IC50 at Adrenergic receptor beta [3] and at Adrenergic receptor beta [4] were 1200 nM and 47 nM, respectively.
The molecule `CCOC(=O)CCc1ccc2c(c1)C[C@H](NC[C@H](O)c1cccc(Cl)c1)CC2.Cl` had an EC50 on Adrenergic receptor beta [1] above 30000 nM. Further, the IC50 came out at 0.9 nM at Adrenergic receptor beta [2] and 480 nM at Adrenergic receptor beta [3].
Molecule `CCOC(=O)CCc1ccc2c(c1)C[C@@H](NC[C@H](O)c1cccc(Cl)c1)CC2.Cl` returned an EC50 on Adrenergic receptor beta [1] above 30000 nM. The IC50 on Adrenergic receptor beta [2] is 1.09 nM; at Adrenergic receptor beta [3], 319 nM.
Turning to `CCOC(=O)c1ccc2c(c1)CC(NCC(O)c1cccc(Cl)c1)CC2.Cl` (stereo not drawn), the EC50 on Adrenergic receptor beta [1] was above 30000 nM. Besides, the IC50 is recorded as 185 nM at Adrenergic receptor beta [3] and 90 nM at Adrenergic receptor beta [4].
Turning to `CCOC(=O)CCc1ccc2c(c1)CC(NCC(O)c1cccc(Cl)c1)CC2.Cl` (stereo not drawn), the EC50 on Adrenergic receptor beta [1] is above 30000 nM. In addition, the results for the IC50 on Adrenergic receptor beta [3] and at Adrenergic receptor beta [4] were 350 nM and 21 nM, respectively.

As usually defined, the EC50 is the concentration needed to bring the measured effect to its halfway point. The low end stands for greater potency, the high end for weaker potency. As usually defined, the IC50 is the concentration that gives 50% inhibition.
